Assay results as given in ChEMBL document CHEMBL1125463, “Inhibition of N8-acetylspermidine deacetylase by active-site-directed metal coordinating inhibitors” (J Med Chem, 1992).

Legend:
[1] = In vitro inhibition of N8-Acetylspermidine deacetylase from rat liver cytosol(apparent Ki); conditions: for Ki: read-out: Ki app
[2] = (§1) In vitro inhibition of N8-Acetylspermidine deacetylase from rat liver cytosol; conditions: read-out: Ki app
Rattus norvegicus = organism: Rattus norvegicus; experiment: as §1
[3] = In vitro inhibition of N8-Acetylspermidine deacetylase from rat liver cytosol(apparent Ki); Ni means no inhibition

Row | Compound | Ki [1] | other results
1 | NCCCNCCCCCC(=O)NO | 0.001 µM | –
2 | NCCCNCCCCCC(=O)O | – | Ki [2]: 11 µM
3 | CC(=O)NCCCCN | 800 µM | –
4 | c1cnc2ccc3ncccc3c2c1 | – | Ki app [1]: No inhibition
5 | CC(=O)NCCCCNCCCN | – | Km (Rattus norvegicus): 11 µM
6 | NCCCCC(=O)O [5-AMINOVALERIC ACID] | 4100 µM | –
7 | NCCCCCC(=O)O [AMINOCAPROIC ACID] | 50 µM | –
8 | c1ccc(-c2ccccn2)nc1 [DIPYRIDYL] | – | Ki [2]: 1900 µM
9 | O=C(O)CN(CCN(CC(=O)O)CC(=O)O)CC(=O)O [EDETIC ACID] | – | Ki [2]: 3500 µM
10 | NC(=O)CI [IODOACETAMIDE] | – | Ki app [3]: Not Active
11 | CCN1C(=O)C=CC1=O [N-ETHYLMALEIMIDE] | 860 µM | –
12 | c1cnc2c(c1)ccc1cccnc12 [PHENANTHROLINE] | 1300 µM | –
13 | CCCC(=O)[O-].[Na+] [SODIUM BUTYRATE] | 38500 µM | –
14 | Para-Hydroxymercuribenzoic acid | 150 µM | –
